Reference: patent publication US20190192527A1, “COMPOSITIONS COMPRISING PIKFYVE INHIBITORS AND METHODS RELATED TO INHIBITION OF RANK SIGNALING” (AI Therapeutics, Inc., priority 2016, published 2019)

What was measured:
CYP3A4, CYP1A2, CYP2D6 = assay: reaction phenotyping studies; format: in vitro ADME
Description: (§1) In embodiments, the apilimod for use in the compositions and methods of the invention is the free base or dimesylate salt form, MW 610.7 (dimesylate salt); tPSA 83.1; pKa 5.39 (±0.03), 4.54 (±0.27); HBD 1. […] In embodiments, an active metabolite of apilimod may be used. […] Tmax generally occurred within 1 or 2 hours after the oral dose, consistent with the rapid […] of this compound from the circulation. […] The primary metabolites are short-lived in circulation. Both apilimod free base and the dimesylate salt are highly bound ([…]) to rat, dog and human plasma proteins.

WSU-DLCL2B cell lymphoma = assay: viability (CellTiter Glo) of CRISPR guide RNA cell pools treated with apilimod; format: cell-based; conditions: treated for 3 days
Description: Pools cells containing guide RNAs targeted against either the indicated genes or non-targeting (NT) guide RNAs were treated with apilimod for 3 days and viability was assayed by CellTiter Glo (Promega).
A genome-wide CRISPR screen for factors conferring resistance of B-cell lymphoma to apilimod uncovered the lysosomal regulator TFEB as well as the lysosomal and osteopetrosis-associated genes CLCN7, OSTM1, and SNX10 as mediators of apilimod-induced cytotoxicity (see FIGS. 1A-1D).

[1] = microsomal and hepatocyte stability studies, metabolite identification; format: in vitro ADME; conditions: rat and human microsomal and hepatocyte stability studies
Description: as §1

Cathepsin K = Cathepsin K maturation, western blot in RAW 264.7-derived osteoclasts; format: cell-based; conditions: differentiated with 30 ng/ml RANKL 4 days, then RANKL and apilimod 24 hours
Description: RAW264.7 macrophages were differentiated with 30 ng/ml RANKL for 4 days and subsequently treated with RANKL and the indicated concentration of apilimod for 24 hours prior to harvesting lysates and performing western blot for the indicated protein.

[2] = tested on: periodontal bone resorption; assay: rat periodontal disease model; format: in vivo
Description: FIGS. 6A-6B: Graphical representation of the effect of apilimod on periodontal bone resorption (A). Daily oral doses of apilimod (8 and 20 mg/kg) reduce bone loss (B).
Moreover, apilimod was active in inhibiting in vivo osteoclast activity in a rat periodontal disease model (see FIGS. 6A-6B). In brief, Th-1 type clonal cells specific for Actinobacillus actinomycetemcomitans (Aa) 29-kDa outer membrane protein (Omp29) were activated by incubation with formalin-killed Aa and irradiated syngeneic rat spleen cells. These activated cells were then transferred intravenously through the rat tail vein (1.0×10^7 cells) into the rat. On the same day, the antigen Omp29 was injected with LPS into the left palatal maxilla gingiva; and saline was injected into the right palatal maxilla gingiva, for control measurements. Apilimod was given orally in daily doses of 8 and 20 mg/kg from the day of the induction until day 10. At the end of the ten day period, animals were sacrificed and their jaws were defleshed to allow the assessment of periodontal bone resorption, calculated as the ratio of the difference in cemento-enamel junction (CEJ-AL) distance between left and right sides versus CEJ-AL distance of right.

[3] = tested on: RANK, c-Fos, MITF, PU.1, TRAF6, OPG; assay: RNA expression of osteogenic factors by quantitative PCR in RAW264.7 macrophages; format: cell-based; conditions: undifferentiated and RANKL-differentiated (30 ng/mL, 3 days) cells, apilimod 24h
Source text: FIG. 5A-5B: Effect of apilimod treatment on the RNA expression of osteogenic factors RANK, c-Fos, microphthalmia-associated transcription factor (MITF), PU.1, TNF receptor associated factor 6 (TRAF6) and osteoprotegerin (OPG) in undifferentiated (A) or differentiated (B) RAW264.7 macrophages as assessed by quantitative PCR.
(§2) Apilimod blocked the expression of RANK receptor and the transcription factors MITF, PU.1 and c-Fos in both undifferentiated and RANKL-differentiated RAW264.7 macrophages. Cells were differentiated for a total of 3 days with 30 ng/mL RANKL. On the last day of differentiation cells were co-treated with RANKL and the indicated concentration of apilimod or vehicle for 24h. […] (see FIGS. 5A-5B).

osteoclast formation = conditions: in vitro assay, described in WO 2005/000404; read-out: IC50, inhibitory activity against osteoclast formation; cited from earlier work
RAW264.7 macrophages = assay: RANKL-induced differentiation of TRAP positive osteoclasts from RAW264.7 macrophages; format: cell-based
Description: RAW264.7 macrophages were differentiated with either vehicle or 30 ng/mL RANKL for a total of 5 days. For the last 3 days of differentiation, cells were co-treated with the indicated concentration of apilimod. Cells were subsequently stained for TRAP. Arrows highlight giant TRAP positive, multinucleated osteoclasts.
FIGS. 4A-4B: Inhibition of RANKL-induced differentiation of RAW264.7-derived osteoclasts by apilimod as indicated by a reduction in the number of TRAP-positive multinucleated cells (A) or giant osteoclasts (B). The average of triplicate wells was determined and percentages relative to untreated are shown.
as §2

pKa = format: physicochemical
MPC-11 tumor cells = assay: systemic MPC-11 syngeneic model of multiple myeloma; format: in vivo, mouse
Source text: To determine if apilimod inhibition of RANKL/RANK signaling blocks the bone growth of multiple myeloma cells in vivo, the systemic MPC-11 syngeneic model was used (Laskov R et al. J Exp Med. 1970 131(3):515-41; Ferguson V L et al. Bone. 2002 30(1): 109-116). In this model, animals develop hind limb paralysis due to infiltration of multiple myeloma cells into the vertebrae that compresses the spinal column. In brief, MPC-11 tumor cells were maintained in vitro in DMEM medium supplemented with 10% horse serum at 37° C. in 5% CO2. Each mouse was then injected via the tail vein with MPC-11 tumor cells (1×10^6) in 0.1 ml of PBS for tumor development. The regimen of dosing is detailed in Table 1. At 4 days post-tumor inoculation, mice were orally administered with a vehicle or apilimod dimesylate (70 mg/kg) twice a day up to 35 days. Survival rate of vehicle-treated animal group (n=10) and apilimod-treated animal group (n=10) were monitored as an indicator of hind limb paralysis.
To directly examine the effect of apilimod on the MPC-11 tumor burden in bone, immunohistochemical staining was performed. Femurs from the in vivo experiment were fixed in 10% formalin and then rinsed in 70% ethanol and dehydrated in acetone before embedding in methacrylate. 4 μm sections were then stained in 2% Toluidine blue. […] Orange boxed region on left panel is shown at 40× magnification in the right panel. Note total effacement of bone marrow architecture and replacement with MPC-11 tumor cells in top panel. […] This effect was quantitated by generating paraffin sections from tibias of the animals and staining the sections with the multiple myeloma marker CD138 (BioLegend antibody, Clone 281-2). Values for CD138 positive staining were obtained by measuring within in a pre-defined Region of Interest (ROI) defined as 1.17 millimeter square, 200 micrometer below the tibia proximal growth plate. CD138 positive staining was measured according to standard protocols (Dempster D W et al. J Clin Endocrinol Metab. 2012 97(8):2799-2808).

[4] = RANKL-induced differentiation, relative to untreated
[5] = tibia sections, ROI 1.17 millimeter square, n = 5, apilimod dimesylate 70 mg/kg p.o. BID

In the case of `Cc1cccc(/C=N/Nc2cc(N3CCOCC3)nc(OCCc3ccccn3)n2)c1` [apilimod], the “enzymes that contribute to metabolism” value (CYP3A4, CYP1A2, CYP2D6) is reported as “CYP3A4 and to a lesser extent CYP1A2 and/or CYP2D6”, the “effect of CRISPR-induced loss of CLCN7, OSTM1, SNX10, TFEB on viability under apilimod” value (WSU-DLCL2B cell lymphoma) is reported as “confer resistance to apilimod” and the primary metabolites identified [1] is reported as “Six primary metabolites”. The “cathepsin K processing (maturation)” value (Cathepsin K) was “inhibition of cathepsin K processing”, the “protection against Th1-mediated bone loss (periodontal bone resorption)” value ([2]; 8 mg/kg orally daily until day 10) was “significant protection” and the “protection against Th1-mediated bone loss (periodontal bone resorption)” value ([2]; 20 mg/kg orally daily until day 10) was “significant protection”. For the same compound, the “RNA expression of RANK, c-Fos, MITF, and PU.1” value [3] was “Decreases were observed”, the “RNA expression of TRAF6 or OPG” value [3] was “Significant decreases were not observed” and the IC50 (osteoclast formation) was 15 nM. The RANKL-stimulated osteoclastogenesis (RAW264.7 macrophages; 30 ng/mL RANKL 5 days, apilimod for the last 3 days, TRAP staining) was “potently blocked”, the “number of TRAP-positive multinucleated cells” value (RAW264.7 macrophages; [4]) was “reduction” and the “number of giant osteoclasts” value (RAW264.7 macrophages; [4]) was “reduction”. The pKa (pKa) was 5.39, the “invasion of myeloma cells in femur marrow, toluidine blue staining, qualitative” value (MPC-11 tumor cells; apilimod dimesylate 70 mg/kg p.o. BID) was “minimal invasion” and the “animals with hind limb paralysis” value (MPC-11 tumor cells; apilimod dimesylate 70 mg/kg p.o. twice a day up to 35 days, n=10) was “none”. For the same compound, the “Tumor Area, CD138 staining” value (MPC-11 tumor cells; [5]) was 0.012 ± 0.03 mm^2 and the “Tumor Area/ Tissue Area, CD138 staining” value (MPC-11 tumor cells; [5]) was 0.010 ± 0.02%.
